# Test results reported in publication PMC7503509, “Polydopamine Linking Substrate for AMPs: Characterisation and Stability on Ti6Al4V” (Materials, 2020).
# Read-outs that look alike come from different tables or passages of the source. No end group written: not given here.
# Experiments:
# [1] = system: E. coli (I364), P. aeruginosa (PAO1), S. aureus (F77); type: cell-based; details: 18 h
# Method: (§1) The minimum inhibition concentration (MIC) is used to determine the lowest concentration of antimicrobial agent needed to inhibit the visible growth of a bacteria strain after overnight incubation. All the bacteria strains were kindly provided by Dr Mark Webber of the Quadram Institute Bioscience (Norwich, UK; Escherichia coli (E. coli, […]), Pseudomonas aeruginosa (P. aeruginosa, PAO1) and Staphylococcus aureus (S. aureus, […]/NCTC8532)). Lysogen broth (LB broth) and agar were purchased from Sigma-Aldrich, Merck Life Science UK Limited, Dorset, UK. Fresh LB agar culture plates were prepared by pouring ≈10 mL of an autoclaved warm mixture of LB broth (2.5%) and bacteriological agar (1.5%) dissolved in dH2O. The agar plate was streaked and incubated overnight at 36 °C. A single bacterial colony was chosen and grown in 5 mL broth overnight under agitation at 36 °C. Subsequently, 50 μL of LB broth was added to wells 2-12 of a 96-well culture plate. AMPs were diluted to a concentration of 256 μg/mL, added to well 1, and diluted two-fold down to column 11. Column 12 was left empty, with no AMPs added. Then, 50 μL of the diluted overnight bacteria culture was added to the wells and incubated at 36 °C for 18 h to allow bacteria to grow. After incubation, the well plates were examined for bacterial growth and the lowest concentration of AMPs where clear liquid was observed was assumed to be the minimum inhibitory concentration. Three measurements for each peptide and against each type of bacteria were performed and the average values were obtained.
# [2] = system: Escherichia coli (E. coli, I364); type: cell-based; details: I364, 18 h
# Method: as §1
# [3] = system: Pseudomonas aeruginosa (P. aeruginosa, PAO1); type: cell-based; details: PAO1, 18 h
# Method: as §1
# [4] = system: Staphylococcus aureus (S. aureus, F77/NCTC8532); type: cell-based; details: NCTC8532, 18 h
# Method: as §1
# [5] = system: Escherichia coli (E. coli, I364); details: comparison value for LL-37; cited from earlier work
# Text: Table 3 MIC values for the designed KR12 analogues compared to the LL-37 human cathelicidin. | column: MIC Values (μM) / E. coli ([…])
# [6] = system: Pseudomonas aeruginosa (P. aeruginosa, PAO1); details: comparison value for LL-37; cited from earlier work
# Text: Table 3 MIC values for the designed KR12 analogues compared to the LL-37 human cathelicidin. | column: MIC Values (μM) / P. aeruginosa (PAO1)
# [7] = system: Staphylococcus aureus (S. aureus, F77/NCTC8532); details: comparison value for LL-37; cited from earlier work
# Text: Table 3 MIC values for the designed KR12 analogues compared to the LL-37 human cathelicidin. | column: MIC Values (μM) / S. aureus ([…])
# [8] = system: E. coli (I364), P. aeruginosa (PAO1), S. aureus (F77); details: mean of the literature values for LL-37; cited from earlier work
# Text: Table 3 MIC values for the designed KR12 analogues compared to the LL-37 human cathelicidin. | column: MIC Values (μM) / Geometric Mean
Substance,MIC Values Geometric Mean [1] [µM],MIC Values E. coli (I364) [2] [µM],MIC Values P. aeruginosa (PAO1) [3] [µM],MIC Values S. aureus (F77) [4] [µM],MIC Values E. coli (I364) [5] [µM],MIC Values P. aeruginosa (PAO1) [6] [µM],MIC Values S. aureus (F77) [7] [µM],MIC Values Geometric Mean [8] [µM]
KIRVQRIKDFLR [KR12/32],13.33,4,4,32,–,–,–,–
KIRVRIKFR [KR12/32-5911],3.33,4,4,2,–,–,–,–
"KRIVQRIKDFLR [KR12, reference compound]",4.0,2,2,8,–,–,–,–
KRIVRIKFR [KR12-5911],3.5,0.5,2,8,–,–,–,–
"LL-37: human cathelicidin, native peptide of KR12",–,–,–,–,8,8,4,6.67
